A short description of data set [1]: Absorbance spectra. Format: physicochemical. The settings on record: 5 μM in DMSO. The protocol:
Absorbance spectra. The absorbances for compound 1 and compound 2 were obtained using a PerkinElmer Lambda 5 measuring absorbances in 1 nm steps from 500 to 1100 nm. The absorbance spectrum for compound 3 was obtained using a JASCO VI 70 measuring in 1 nm steps from 850 to 1150 nm. All compounds were dissolved in DMSO at a concentration of 5 μM.
Synthesis of compound 1, compound 2 and compound 3 was verified by MALDI-TOF mass spectrometry with further confirmation by ^1H-NMR.

Data set [2] in a line: Emission spectra. The class given is physicochemical. The note with it: for NIR-II fluorescence: absorbance and emission spectra, DMSO. The protocol:
Emission spectra. The emissions for compounds 1, 2 and 3 were obtained using a Horiba QuantaMaster with excitation at 900 nm and emissions recorded in 1 nm steps from 925 to 1300 nm. […]
Compound 3 has a maximum absorbance at 942 nm and maximum emission at 979 nm. The emission intensities were determined with excitation at 900 nm.

For data set [3], the system named is KLN 205 cells. In words: Cell uptake (NIR-II emission of cell lysates). The settings on record: 10 μM, 2 h, 37 °C; lysed with 0.5% Triton X-100. The class given is cell-based. As for the experimental part:
KLN 205 cells were seeded into an 8 chamber slide at 15,000 cells/well. Cells were incubated overnight at 37 °C and 5% CO2. Cells were then treated in 500 μL with 10 μM of compound 1, compound 2 or compound 3, or with vehicle (DMSO). The slide was incubated for 2 hours with treatment at 37 °C and 5% CO2.
Following treatment, the solution was aspirated, and cells were rinsed twice with 500 μL of ice-cold DPBS. Triton X-100 was diluted to be 0.5% Triton, and 500 μL of this solution were added to each chamber for 10 min at 37 °C and 5% CO2 to lyse the cells. 100 μL were removed from each chamber and added to a 96-well black-well clear-bottom plate. The plate was then imaged for NIR-II emission using the PhotonEtc IR Vivo with excitation at 760, 808, 890, or 940 nm.
Cell uptake of compound 1, compound 2 and compound 3 was evaluated by incubating KLN 205 cells in 10 μM of compound 1, compound 2 and compound 3, or with DMSO for 2 hrs. Following incubation, cells were rinsed twice with ice-cold DPBS before lysing by treatment with Triton. The lysates were then transferred to a 96-well black-well clear-bottom plate and imaged for NIR-II fluorescence in the IR Vivo, as shown in FIG. 4.

Data set [4] in a line: NIR-II fluorescence of compound 1 vs. JAS239 and ICG (plate imaging, IR Vivo). The class given is physicochemical. The note with it: for NIR-II emissions; excitation requirement: discussion of NIR-I fluorophores, require excitation with a NIR-I laser; for NIR-II emission: emission 1,000-1,250 nm, DMSO, no tissue. As for the experimental part: NIR-II Fluorescence of Compound 1 vs. JAS239 and ICG.
Compound 1, JAS239, and ICG were dissolved in DMSO and added to a 96-well black-well clear-bottom plate at concentrations from 1 μM to 100 μM. The plate was then imaged using the PhotonEtc IR Vivo using the NIR-II emission filter (1000-1250 nm) with excitation at 760 nm, 808 nm, 890 nm, or 940 nm.
Dyes were excited with excitation lasers at 760, 808, 890, and 940 nm and emissions were measured between 1,000 and 1,250 nm.

Data set [5] can be described thus: Depth penetration comparisons of compound 1 vs. JAS239 and ICG through chicken breast tissue. The protocol: Depth Penetration Comparisons of Compound 1 vs. JAS239 and ICG.
Compound 1, JAS239, and ICG were diluted in DMSO and placed in a 96-well black-well clear-bottom plate at concentrations from 0.1 μM to 100 μM. The plate was then imaged using the PhotonEtc IR Vivo using the NIR-II emission filter with excitation at 760, 808, 890, or 940 nm. Wells were then covered with thinly sliced raw chicken breast tissue from 1 mm to 3 mm thick. Imaging was then repeated for each tissue thickness.
Chicken breast tissue was layered over wells containing varying concentrations of each fluorophore in 1 mm sections. Fluorescence in the NIR-II window was measured following excitation at 760, 808, 890, and 940 nm. […] Tissue scattering, absorption, and autofluorescence decreases at increasing wavelengths of light. Thus, the improved resolution of compound 1 with increasing wavelength of excitation laser likely resulted from improved tissue penetration of the excitation laser. Compound 1 has a maximum absorption at 970 nm resulting in strong excitation of the probe and fluorescence conversion.

For data set [6] the following is noted: NIR-II range; cited from earlier work.
Data set [7] concerns Athymic Nu/Nu mice. Kind of data set: In vivo imaging after tail vein injection. The settings on record: 40 nmol via tail vein. The protocol: Athymic Nu/Nu mice were injected with 40 nmol compound 1 through the tail vein in Normal Saline and filtered through a 0.22 μm filter.
Setting [8] is: 5 μM in DMSO, excitation at 900 nm.
Where [9] appears, read: excitation lasers 760 and 808 nm.
[10] abbreviates: excitation lasers 890 and 940 nm.

“Also recorded” adds a separate entry of the source.

With “4-((E)-2((E)-2-chloro-3-(2-((Z)-1-hydroxyethylquinolin-4(JH)-ylidene)-ethylidene)cyclohex-1-en-1-yl)vinyl)-1-hydroxyethylquinolin-1-ium chloride [compound 2]”, in data set [1], the “absorbance maxima, shift compared to compound 3” value is listed as “further shifted into the NIR-II window compared to compound 3” and the maximum absorbance is given as 970 nm. In data set [2] (setting [8]), the “emission maxima, shift compared to compound 3” value is on record as “further shifted into the NIR-II window compared to compound 3” and the maximum emission is 1007 nm. For the same compound, the NIR-II fluorescence result in data set [2] is “measurable NIR-II fluorescence”. The “NIR-II fluorescence of cell lysates (cell uptake)” value in data set [3] is listed as “measurable emissions; also recorded: measurable fluorescence in the NIR-II window”.
For `CC1(C)C(/C=C/C=C/C=C/C=C2\N(CCCCS(=O)(=O)O)c3ccc4ccccc4c3C2(C)C)=[N+](CCCCS(=O)(=O)[O-])c2ccc3ccccc3c21` [ICG, indocyanine green], in data set [4], the “NIR-II emissions; excitation requirement” value was “measurable emissions in the NIR-II window”. Besides, the results for the NIR-II emission entry in data set [4] (setting [9]) and in data set [4] (setting [10]) were “strongest NIR-II emissions” and “disappeared”, respectively. The “NIR-II emission intensity, no tissue present” value in data set [5] is given as “most intense emissions in the NIR-II window”. The “NIR-II fluorescence (background statement)” value in data set [6] was “measurable fluorescence at even longer wavelengths of light in the near-infrared II (NIR-II) range”.
Take `CC1(C)C(=C/C=C/C=C/C=C/C2=[N+](CCO)c3ccccc3C2(C)C)N(CCO)c2ccccc21` [JAS239]: the “NIR-II emissions; excitation requirement” value in data set [4] is given as “measurable emissions in the NIR-II window”. Also, the NIR-II emission result is recorded as “strongest NIR-II emissions” in data set [4] (setting [9]) and “disappeared” in data set [4] (setting [10]).
Turning to `CCN1C=C/C(=C/C=C2\CCCC(/C=C/c3cc[n+](CC)c4ccccc34)=C2Cl)c2ccccc21.[I-]` [compound 1, 4-((E)-2((E)-2-chloro-3-(2-((Z)-J-ethylquinolin-4(JH)-ylidene)-ethylidene)cyclohex-1-en-1-yl)vinyl)-J-ethylquinolin-1-ium iodide], in data set [1], the “absorbance maxima, shift compared to compound 3” value is “further shifted into the NIR-II window compared to compound 3” and the maximum absorbance is on record as 970 nm. For the same compound, in data set [2] (setting [8]), the “emission intensity (comparison of compounds 1, 2 and 3)” value is given as “most intense emission; also recorded: highest fluorescence with an emission maximum in the NIR-II window”; the “emission maxima, shift compared to compound 3” value was “further shifted into the NIR-II window compared to compound 3”; the maximum emission was found to be 1010 nm. Further, in data set [2], the NIR-II fluorescence result is “measurable NIR-II fluorescence”. In addition, in data set [4] (IR Vivo, excited near its absorbance maximum), the “NIR-II emission compared to ICG” value is given as “comparable NIR-II emissions to ICG”. Besides, the NIR-II emission entry in data set [4] (setting [10]) is “strong NIR-II signal; also recorded: only compound 1 had measurable fluorescence in the NIR-II window”. For the same compound, in data set [3], the “NIR-II fluorescence of cell lysates (cell uptake)” value is on record as “measurable emissions; also recorded: measurable fluorescence in the NIR-II window”. The “distribution in ventral image” value in data set [7] (5 mins after injection) is reported as “in the liver”. For the same compound, the “distribution in ventral image” value in data set [7] (2 hours after injection) is “in the throat, liver and intestines”.
Compound `OCCN1C=C/C(=C/C=C/C=C/C=C/c2cc[n+](CCO)c3ccccc23)c2ccccc21.[Cl-]` [compound 3, l-(2-hydroxyethyl)-4-((JE,3E,5E)-7-((Z)-J-(2-hydroxyethyl)-quinoline-4(JH)-ylidene)hepta-1,3,5-trien-1-yl)quinoline-1-ium chloride] came in with a maximum absorbance in data set [1] of 942 nm. Further, the maximum emission in data set [2] (setting [8]) is listed as 979 nm. Also, the NIR-II fluorescence entry in data set [2] is given as “measurable NIR-II fluorescence”. Also, the “NIR-II fluorescence of cell lysates (cell uptake)” value in data set [3] is “no fluorescence was observed”.

The values above are taken from US20260365855A1, “TARGETED QUINOCYANINE DYES FOR THE INTRAOPERATIVE DELINEATION OF CANCER MARGINS” (THE TRUSTEES OF THE UNIVERSITY OF PENNSYLVANIA, priority 2022, published 2026).
